Legend:
Conditions in all cases: 72 h
MV4-11 [1] = assay: cell viability (% survival relative to DMSO control, bortezomib = 0%); higher = less cytotoxic
How it was run: (§1)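 Seeding density for each of the 10 AML and 5 CML cell lines was titrated to the linear growth range. Cells went into 384-well plates pre-printed in duplicate with compounds at 1, 10, 100, 1000 or 10000 nM and were held for 72 h at 37 °C with 5% CO2. CellTiter-Glo luminescence then provided the readout. Percent survival is expressed relative to vehicle at 100% and a 10 µM positive control at 0%, averaged over duplicates.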

KCL-22 = assay: as above
How it was run: as §1

NOMO-1 = assay: as above
How it was run: as §1

Mono-Mac-6 = assay: as above
How it was run: as §1

BV-173 = assay: as above
How it was run: as §1

KU-812 = assay: as above
How it was run: as §1

THP-1 = assay: as above
How it was run: as §1

MOLM-13 = assay: as above
How it was run: as §1

HL-60 [2] = assay: as above
How it was run: as §1

ML-2 = assay: as above
How it was run: as §1

SHI-1 = assay: as above
How it was run: as §1

K-562 = assay: as above
How it was run: as §1

HEL = assay: as above
How it was run: as §1

LAMA-84 = assay: as above
How it was run: as §1

KG-1 = assay: as above
How it was run: as §1

MV4-11 [3] = tested on: MV4-11
How it was run: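 The IC50 was read from log-logistic dose–response fits. Fifteen myeloid leukaemia lines were exposed for 72 h at 37 °C with 5% CO2 to five tenfold doses from 1 to 10,000 nM in duplicate. ATP luminescence, normalised to vehicle and to a 10 µM positive control, was fitted with four parameters.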

HL-60 [4] = assay: cell viability (% survival relative to DMSO control); higher = less cytotoxic
How it was run: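 Four-parameter log-logistic fits in drc and PharmacoGx supplied area under the curve where it is given. Underlying viability came from CellTiter-Glo, normalised to DMSO and proteasome-inhibitor wells, with the proteasome inhibitor at 10 μM. HL-60 cells in RPMI 1640 plus 10% FBS had been rescreened against the full library at five tenfold concentrations of 1–10,000 nM, in duplicate on 384-well plates, with DMSO or 100 nM of one of three metabolic inhibitors, for 72 h at 37 °C, 5% CO2.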

O=C1O[C@H]([C@@H](O)CO)C(O)=C1O [Vitamin C (ascorbate)]
cell viability [%]
Conditions	1 nM	10 nM	100 nM	1000 nM	10000 nM
BV-173	94.2	113	103	99.2	118
HEL	103	106	98.9	107	113
HL-60 [2]	104	91.2	101	108	84.7
K-562	99.2	96.3	92.8	104	89.4
KCL-22	90.2	96.2	97.7	88.1	92.6
KG-1	112	103	118	97.5	106
KU-812	96.8	104	99.5	95	108
LAMA-84	106	106	113	101	102
ML-2	103	107	100	102	121
MOLM-13	101	103	91.6	94.2	107
MV4-11 [1]	102	102	111	111	92.1
Mono-Mac-6	103	109	98.8	101	108
NOMO-1	95.5	100	110	97.8	102
SHI-1	110	106	105	102	114
THP-1	96.4	100	103	103	99.9

Conditions	IC50 (cell viability) [µM]
MV4-11 [3]	> 10

cell viability [%], HL-60 [4]
Conditions	0.001 µM	0.01 µM	0.1 µM	1 µM	10 µM
co-treatment: AZD3965 100 nM	89.82	94.8	101	103	67.9
co-treatment: DMSO vehicle	102	95.8	98.77	103	88.3
co-treatment: GSK2194069 100 nM	88.6	100	96.8	101	95.5
co-treatment: pictilisib 100 nM	80.3	81.6	96.3	95.46	75.2

— the supplement of paper PMC8671470
